For assay [1], the target named is T1, C. albicans HSP90-mNeonGreen–Sba1-mScarlet-I binding (Candida albicans, UniProt P46598, E36A).
T1 construct: made in house; host or cells: E. coli BL21(DE3)
Particulars: 20 µM added; 1 µM HSP90-mNeonGreen, 2 µM Sba1-mScarlet-I, 5 mM ATP. Here is the method:
(§1) In this investigation, 1 µM HSP90-mNeonGreen was incubated with 2 µM Sba1-mScarlet-I in reaction buffer containing 5 mM ATP either alone (UC) or with the addition of 20 µM Sba1. As a negative control, samples containing 20 µM bovine serum albumin (BSA) were used.
(§2) FRET experiments were carried out in 384-well microtiter plates (Art. No. 3766 Corning, NY, USA, or Art. No. 781906, Greiner Bio-One GmbH, Frickenhausen, Germany) containing a final volume of 20 µL and measured with a microplate reader Infinite M200Pro (Tecan, Männedorf, Switzerland). The fluorescence was measured in three channels: excitation (ex.): 488 nm/emission (em.): 525 nm (mNeonGreen fluorescence), ex.: 561 nm/em.: 610 nm (mScarlet-I fluorescence) and the FRET channel ex.: 488 nm/em.: 610 nm. The excitation and emission bandwidths were set to 9 and 20 nm, respectively. Experiments for the determination of the equilibrium dissociation constants were performed with a filter-based microplate reader Infinite F200Pro (Tecan, Männedorf, Switzerland). The fluorescence was measured in three channels using the following filters: ex.: 485 ± 20 nm/em.: 535 ± 20 nm (mNeonGreen channel), ex.: 535 ± 20 nm/em.: 612 ± 10 nm (mScarlet-I channel) and the FRET channel ex.: 485 ± 20 nm/em.: 612 ± 10 nm. FRET emission (EmFRET) was calculated according to Song et al. 2011 [81]:(1) EmFRET=FLDA−x×FLDD−(y×FLAA) where FLDA is the fluorescence signal of the FRET channel and FLDD and FLAA are fluorescence signals from the mNeonGreen and mScarlet-I channels, respectively. The correction factors x and y were calculated as follows:(2) x=FLDA/FLDD for samples containing only the donor fluorophore or fluorescent fusion proteins with mNeonGreen and (3) y=FLDA/FLAA for samples containing only the acceptor fluorophore or fluorescent fusion proteins with mScarlet-I in the same concentration as samples containing both the donor and acceptor.
All experiments were carried out in reaction buffer (40 mM HEPES/KOH pH 7.5, 20 mM KCl, 5 mM MgCl2, 20 mM Na2MoO4, Triton-X 100 0.1%). HEPES and KCl were purchased from AppliChem, Darmstadt, Germany. […]

The target of assay [2] is T2, human HSP90α-mNeonGreen–p23-mScarlet-I binding (Homo sapiens, UniProt P07900, E47A).
T2 construct: made in house; host or cells: E. coli Rosetta2(DE3) pLysS
Kind of assay: FRET characterization of model inhibitors and ATP on human HSP90α-p23 binding. Particulars: 20 µM added; 1 µM HSP90α-mNeonGreen, 2 µM p23-mScarlet-I, 5 mM ATP. Here is the method: as §1, §2
All experiments were carried out in reaction buffer (40 mM HEPES/KOH pH 7.5, 20 mM KCl, 5 mM MgCl2, 20 mM Na2MoO4, Triton-X 100 0.1%). HEPES and KCl were purchased from AppliChem, Darmstadt, Germany. KOH and MgCl2 were obtained from VWR Chemicals, Darmstadt, Germany. Na2MoO4 was from Merck, Darmstadt, Germany. Triton-X 100 was purchased from Serva, Heidelberg, Germany.
For C. albicans Sba1 competition experiments for HSP90-mNeonGreen–Sba1-mScarlet-I binding, 1 µM HSP90-mNeonGreen and 1 µM Sba1-mScarlet-I were incubated with varying concentrations of Sba1 in a range of 0–25,000 nM (lowest non-zero concentration 12 nM) in reaction buffer containing 5 mM ATP. The experiment was performed twice in nonaplicates. For human p23 competition experiments for HSP90α-mNeonGreen–p23-mScarlet-I binding, 1 µM HSP90α-mNeonGreen and 1 µM p23-mScarlet-I were incubated with varying concentrations of p23 in a range of 0–50 000 nM (lowest non-zero concentration 23 nM) in reaction buffer containing 5 mM ATP. The experiment was performed twice in hexaplicates. […] The experiment was performed thrice in triplicates. […] The IC50,rel values were calculated using the equation log (inhibitor) vs. response-variable slope (four parameters) in GraphPad Prism 5. Ki values for inhibition of HSP90-mNeonGreen–Sba1-mScarlet-I/p23-mScarlet-I binding by non-labeled Sba1/p23 were calculated with One Site—Fit Ki in GraphPad Prism 5. […] The EC50,rel values were calculated using the log (agonist) vs. response-variable slope (four parameters) equation in GraphPad Prism 5.

Assay [3] deals with T3, C. albicans HSP90–Sba1 binding (Candida albicans, UniProt P46598).
T3 construct: made in house; host or cells: E. coli BL21(DE3)
T3 sequence (P46598 whole entry): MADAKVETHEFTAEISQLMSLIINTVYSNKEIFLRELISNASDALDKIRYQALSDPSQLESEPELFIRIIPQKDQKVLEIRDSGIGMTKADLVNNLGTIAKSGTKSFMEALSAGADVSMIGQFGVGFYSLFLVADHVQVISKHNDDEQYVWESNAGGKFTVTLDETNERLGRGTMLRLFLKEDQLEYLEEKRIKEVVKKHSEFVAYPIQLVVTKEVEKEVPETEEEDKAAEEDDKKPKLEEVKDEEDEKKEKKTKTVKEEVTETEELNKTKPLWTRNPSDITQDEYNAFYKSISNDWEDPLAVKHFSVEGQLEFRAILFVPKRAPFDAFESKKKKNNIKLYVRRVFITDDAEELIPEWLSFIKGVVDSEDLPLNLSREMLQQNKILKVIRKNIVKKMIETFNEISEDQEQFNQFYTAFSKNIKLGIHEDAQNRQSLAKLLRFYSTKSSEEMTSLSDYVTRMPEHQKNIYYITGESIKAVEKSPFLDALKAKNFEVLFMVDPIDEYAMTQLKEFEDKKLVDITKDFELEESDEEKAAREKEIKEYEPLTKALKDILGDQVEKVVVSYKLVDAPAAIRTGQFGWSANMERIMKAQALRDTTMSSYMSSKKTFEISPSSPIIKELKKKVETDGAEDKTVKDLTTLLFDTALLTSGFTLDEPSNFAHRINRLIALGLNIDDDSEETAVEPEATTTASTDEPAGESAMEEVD
Kind of assay: FRET inhibitor screening assay, C. albicans HSP90-Sba1 binding. Particulars: 10 or 100 µM (Sba1 20 µM), triplicates, 3 mM ATP, 1% DMSO, 15 min 30 °C.
Description: We used the Z′ factor (Z′) to optimize the FRET assays for screening purposes. Z′ represents a simple statistical parameter for the quality assessment and optimization of HTS assays and screening assays in general. It is a measure that determines the degree of signal separation between binding and non-binding data sets. Calculation of the Z′ factor is based on the standard deviation of the individual data sets as well as their general signal separation. Values ≥ 0.5 can be classified as excellent for screening purposes. […] When the fluorescent fusion proteins of HSP90 and co-chaperones bind to each other, FRET occurs between donor and acceptor fluorophores, and the sensitized emission (EmFRET) signal increases. Consequently, the fluorescence intensity of the donor decreases (FLDD). […] To obtain an informative Z′ value, we calculated it based on at least three independent experiments amounting to 144 samples for both binding and non-binding control data sets (Figure 4B,E). […] We defined the ‘hit threshold’ as a decrease in readout signal of more than 3 standard deviations (SDs) from the mean signal of the binding control. This constitutes a common threshold for hit identification in HTS campaigns.
as §2
For screening for the identification of ATP-competitive C. albicans HSP90 and HSP90-Sba1 binding inhibitors, 10 µL of HSP90-mNeonGreen ([…]) in HEPES buffer (40 mM HEPES/KOH pH 7.5, 20 mM KCl) was mixed with 10 µL of 200 µM compound solution in 2x reaction buffer (40 mM HEPES/KOH pH 7.5, 20 mM KCl, 10 mM MgCl2, 40 mM Na2MoO4, Triton-X 100 0.2%), 6 mM ATP, 2% DMSO, resulting […] Samples for binding control (3 mM ATP, final concentration) and non-binding control (no ATP) were prepared in the same manner without compounds. The samples were incubated for 15 min at 30 °C prior to measurement.

A further assay concerns HSP90 - Sba1/p23 binding. Particulars: according to literature; cited from earlier work.
A further assay has as its target HSP90. Particulars: cited from earlier work.
The target in another assay is T4, human HSP90α–p23 binding (Homo sapiens, UniProt P07900).
T4 construct: made in house; host or cells: E. coli Rosetta2(DE3) pLysS
As to the kind of experiment: FRET inhibitor screening assay, human HSP90α-p23 binding. Particulars: 10 or 100 µM, triplicates, 3 mM ATP, 1% DMSO, 15 min 37 °C. The source says: We used the Z′ factor (Z′) to optimize the FRET assays for screening purposes. Z′ represents a simple statistical parameter for the quality assessment and optimization of HTS assays and screening assays in general. It is a measure that determines the degree of signal separation between binding and non-binding data sets. Calculation of the Z′ factor is based on the standard deviation of the individual data sets as well as their general signal separation. Values ≥ 0.5 can be classified as excellent for screening purposes. […] When the fluorescent fusion proteins of HSP90 and co-chaperones bind to each other, FRET occurs between donor and acceptor fluorophores, and the sensitized emission (EmFRET) signal increases. Consequently, the fluorescence intensity of the donor decreases (FLDD). […] We defined the ‘hit threshold’ as a decrease in readout signal of more than 3 standard deviations (SDs) from the mean signal of the binding control. This constitutes a common threshold for hit identification in HTS campaigns.
The excitation and emission bandwidths were set to 9 and 20 nm, respectively. Experiments for the determination of the equilibrium dissociation constants were performed with a filter-based microplate reader Infinite F200Pro (Tecan, Männedorf, Switzerland). […] The correction factors x and y were calculated as follows:(2) x=FLDA/FLDD for samples containing only the donor fluorophore or fluorescent fusion proteins with mNeonGreen and (3) y=FLDA/FLAA for samples containing only the acceptor fluorophore or fluorescent fusion proteins with mScarlet-I in the same concentration as samples containing both the donor and acceptor.
For screening for the identification of ATP-competitive C. albicans HSP90 and HSP90-Sba1 binding inhibitors, 10 µL of HSP90-mNeonGreen (2 µM) and Sba1-mScarlet-I (4 µM) in HEPES buffer (40 mM HEPES/KOH pH 7.5, 20 mM KCl) was mixed with 10 µL of 200 µM compound solution in 2x reaction buffer (40 mM HEPES/KOH pH 7.5, 20 mM KCl, 10 mM MgCl2, 40 mM Na2MoO4, Triton-X 100 0.2%), 6 mM ATP, 2% DMSO, resulting ultimately in constant HSP90-mNeonGreen concentrations of 1 µM and Sba1-mScarlet-I 2 µM in reaction buffer. Samples for binding control (3 mM ATP, final concentration) and non-binding control (no ATP) were prepared in the same manner without compounds. The samples were incubated for 15 min at 30 °C prior to measurement. The assay for the human HSP90α–p23 binding inhibitor identification was performed analogously, with the exception that samples were incubated for 15 min at 37 °C prior to measurement. Since binding samples show both a high EmFRET as well as a reduction in donor emission (FLDD), we calculated the quotient (EmFRET/FLDD) to derive an improved signal separation and robustness. The nucleoside-mimetics library was obtained from Enamine (catalog No. NML-320-X-20, Enamine Ltd., Kyiv, Ukraine). Z′ and Z factors were calculated based on Zhang et al..

For a further assay, the target named is human HSP90β. More on the design: method as in earlier work. Particulars: 25 °C; ref 37 (McLaughlin et al.); read-out: Kd, binding to human HSP90β; cited from earlier work.
A further assay addresses human HSP90β–p23 complex. More on the design: method as in PMID 16403413. Particulars: read-out: Kd, binding to human HSP90β–p23 complex; cited from earlier work.
The target of assay [4] is T5, C. albicans HSP90-mNeonGreen (Candida albicans, UniProt P46598).
T5 construct: made in house; host or cells: E. coli BL21(DE3)
T5 sequence (P46598 whole entry): as above
As to the kind of experiment: Microscale thermophoresis, AMP-PNP binding. Particulars: 50 nM HSP90-mNeonGreen, 25 °C, error of the fit; read-out: Kd, binding to C. albicans HSP90-mNeonGreen (MST). Here is the method:
HSP90-mNeonGreen (C. albicans) or mNeonGreen serving as the negative control was adjusted to 100 nM with Sba1 buffer (40 mM HEPES/KOH pH 7.5, 20 mM KCl). The ligand AMP-PNP was dissolved in 2x reaction buffer (40 mM HEPES/KOH pH 7.5, 20 mM KCl, 10 mM MgCl2, 40 mM Na2MoO4, 0.2% Triton-X 100), and a series of 16 1:1 dilutions was prepared using the same buffer, producing ligand concentrations ranging from […] to […]. For the measurement, each ligand dilution was mixed with one volume of HSP90-mNeonGreen or mNeonGreen, which led to a final concentration of 50 nM and final ligand concentrations ranging from 153 nM to […]. After 5 min incubation at room temperature, the samples were loaded into Monolith NT.115 Capillaries (NanoTemper Technologies, Munich, Germany). MST was measured using a Monolith NT.115 at an ambient temperature of 25 °C. Instrument parameters were adjusted to 35% LED power and a high MST power of 80%. Data of three independently pipetted measurements were analyzed (MO.Affinity Analysis software version 2.1.3, NanoTemper Technologies, Munich, Germany) using the signal from an MST-on time of 30 s.
In general terms: Microscale thermophoresis detects binding through changes in fluorescence in a small temperature gradient.

“Also recorded” adds a separate entry of the source.

T1 sequence (P46598 whole entry, stated change not applied): as the sequence (P46598 whole entry) above

With bovine serum albumin [BSA], the “effect on FRET emission (EmFRET) versus untreated control” value is listed as “did not show a significant influence; also recorded: no significant (n.s.) reduction” in [1] and “did not show a significant influence” in [2].

Turning to `COc1c(C)cnc(Cn2cnc3c(Cl)nc(N)nc32)c1C` [BIIB021], the “hit identification (EmFRET/FLDD decrease of more than 3 SDs from binding control mean)” value in assay [3] is listed as “reliably identified as disrupting HSP90-Sba1 binding; also recorded: reliably identified as hits”. Also, the “Influence on p23/Sba1 binding” value in the assay with HSP90 - Sba1/p23 binding is on record as “Yes”. Further, the Ki at HSP90 (Table S1, read-out: Ki (printed in the Kd value column)) was […].

On to `CC1(C)CC(=O)c2c(C(F)(F)F)nn(-c3ccc(C(N)=O)c(N[C@H]4CC[C@H](OC(=O)CN)CC4)c3)c2C1` [SNX-5422], for which the “hit identification (EmFRET/FLDD decrease of more than 3 SDs from binding control mean)” value in assay [3] is listed as “reliably identified as disrupting HSP90-Sba1 binding; also recorded: reliably identified as hits”; at human HSP90α–p23 binding it was “reliably identified as hits”. For the same compound, in the assay with HSP90 - Sba1/p23 binding, the “Influence on p23/Sba1 binding” value is recorded as “Yes”. At HSP90 (Table S1, according to literature), the Kd is 0.016 µM.

As to `Nc1ncnc2c1ncn2[C@@H]1O[C@H](COP(=O)(O)OP(=O)(O)NP(=O)(O)O)[C@@H](O)[C@H]1O` [AMP-PNP], the Kd was 148 ± 12 µM at human HSP90β, 39 ± 12 µM on human HSP90β–p23 complex and 200 ± 70 µM in assay [4].

A word on the Ki: it is a measure of affinity in units of concentration, obtained from inhibition or displacement. A word on the Kd: it is the constant that tells how readily two partners part at equilibrium.

The record behind these values is paper PMC11053944, “FRET Assays for the Identification of C. albicans HSP90-Sba1 and Human HSP90α-p23 Binding Inhibitors” (Pharmaceuticals, 2024).
